ChEMBL document CHEMBL1201862, “PubChem BioAssay data set” (2004)
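Results reflect a 48-hour exposure of cells in 96-well plates to compound at five concentrations. The concentration for 50% growth inhibition is given as GI50.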 Active and inactive are the calls of the source. Rule as the data show it: active = GI50 up to about 1.1 µM and inactive = higher.

Experiments:
Assay in all cases: NCI-60 cell line screen, 48 h
RPMI-8226 = test system: RPMI-8226
K562 = test system: K562
KM12 = test system: KM12
SW-620 = test system: SW-620
HCC 2998 = test system: HCC 2998
NCI-H226 = test system: NCI-H226
SF-268 = test system: SF-268
SK-MEL-28 = test system: SK-MEL-28
M14 = test system: M14
UO-31 = test system: UO-31
SF-539 = test system: SF-539
786-0 = test system: 786-0
HOP-62 = test system: HOP-62
ACHN = test system: ACHN
U-251 = test system: U-251
HCT-15 = test system: HCT-15
Malme-3M = test system: Malme-3M
HOP-92 = test system: HOP-92
PC-3 = test system: PC-3
DU-145 = test system: DU-145
SNB-75 = test system: SNB-75
SK-MEL-2 = test system: SK-MEL-2
SNB-19 = test system: SNB-19
EKVX = test system: EKVX
MOLT-4 = test system: MOLT-4
MDA-N = test system: MDA-N
UACC-62 = test system: UACC-62
RXF 393 = test system: RXF 393
OVCAR-4 = test system: OVCAR-4
SK-OV-3 = test system: SK-OV-3
SF-295 = test system: SF-295
UACC-257 = test system: UACC-257
TK-10 = test system: TK-10
OVCAR-5 = test system: OVCAR-5
T47D = test system: T47D
COLO 205 = test system: COLO 205
MDA-MB-231 = test system: MDA-MB-231
A549 = test system: A549
HCT-116 = test system: HCT-116
CCRF-CEM = test system: CCRF-CEM
MDA-MB-435 = test system: MDA-MB-435
HL-60 = test system: HL-60
CAKI-1 = test system: CAKI-1
SK-MEL-5 = test system: SK-MEL-5
IGROV-1 = test system: IGROV-1
Hs-578T = test system: Hs-578T
NCI-H522 = test system: NCI-H522
OVCAR-8 = test system: OVCAR-8
A498 = test system: A498
MCF7 = test system: MCF7
NCI-H23 = test system: NCI-H23
LOX IMVI = test system: LOX IMVI
SR = test system: SR
NCI-H460 = test system: NCI-H460
SN12C = test system: SN12C
OVCAR-3 = test system: OVCAR-3
NCI/ADR-RES = test system: NCI/ADR-RES
HT-29 = test system: HT-29
BT-549 = test system: BT-549

Measured: GI50

O=C1O/C(=C(/Cl)c2c3ccccc3cc3ccccc23)c2ccccc21
20.6 µM: HCT-15
inactive: RPMI-8226 20.3 µM | K562 13.8 µM | KM12 4.02 µM | SW-620 30.7 µM | HCC 2998 30.9 µM | NCI-H226 26.7 µM | SF-268 30.5 µM | SK-MEL-28 40.7 µM | M14 21.4 µM | UO-31 44.2 µM | SF-539 23.6 µM | 786-0 14.4 µM | HOP-62 29.1 µM | ACHN 24.5 µM | U-251 30.5 µM | Malme-3M 48.1 µM | HOP-92 21.8 µM | PC-3 24.8 µM | DU-145 45.4 µM | SNB-75 4.75 µM | SK-MEL-2 15.8 µM | SNB-19 20.3 µM | EKVX 26.4 µM | MOLT-4 7.53 µM | MDA-N 27.4 µM | UACC-62 28.6 µM | RXF 393 33.3 µM | OVCAR-4 17.2 µM | SK-OV-3 69.5 µM | SF-295 47 µM | UACC-257 33.2 µM | TK-10 32.8 µM | OVCAR-5 33.2 µM | T47D 80.5 µM | COLO 205 23.2 µM | MDA-MB-231 19.9 µM | A549 37.1 µM | HCT-116 3.03 µM | CCRF-CEM 4 µM | MDA-MB-435 22.2 µM | HL-60 4.1 µM | CAKI-1 33.4 µM | SK-MEL-5 15.4 µM | IGROV-1 22.5 µM | Hs-578T 23 µM | NCI-H522 29.8 µM | OVCAR-8 23.4 µM | A498 27 µM | MCF7 32.1 µM | NCI-H23 26.1 µM | LOX IMVI 3.33 µM | SR 4.58 µM | NCI-H460 26.5 µM | SN12C 26.1 µM | OVCAR-3 20.1 µM | NCI/ADR-RES 35.2 µM | HT-29 13.1 µM

COC(=O)C1=C(OC(=O)/C(=C/c2c(F)cccc2F)c2ccccc2)C(C(=O)OC)[C@@]2(O)[C@@H](C(=O)OC)[C@H](C)C[C@@H]1[C@@H]2C(=O)OC (stereo partly drawn)
inactive: K562 > 100 µM | KM12 > 100 µM | SW-620 > 100 µM | NCI-H226 > 100 µM | SF-268 > 100 µM | SK-MEL-28 > 100 µM | M14 > 100 µM | UO-31 2.9 µM | SF-539 > 100 µM | 786-0 > 100 µM | HOP-62 > 100 µM | ACHN > 100 µM | U-251 > 100 µM | Malme-3M 68.5 µM | PC-3 > 100 µM | DU-145 > 100 µM | SNB-75 > 100 µM | SK-MEL-2 > 100 µM | SNB-19 > 100 µM | EKVX > 100 µM | MOLT-4 > 100 µM | UACC-62 > 100 µM | RXF 393 > 100 µM | OVCAR-4 > 100 µM | SK-OV-3 > 100 µM | SF-295 > 100 µM | UACC-257 > 100 µM | TK-10 > 100 µM | BT-549 > 100 µM | OVCAR-5 > 100 µM | T47D > 100 µM | COLO 205 > 100 µM | MDA-MB-231 > 100 µM | A549 86.3 µM | HCT-116 > 100 µM | CCRF-CEM > 100 µM | MDA-MB-435 > 100 µM | HL-60 > 100 µM | CAKI-1 > 100 µM | IGROV-1 59.4 µM | NCI-H522 6.76 µM | OVCAR-8 > 100 µM | NCI-H23 > 100 µM | LOX IMVI > 100 µM | NCI-H460 > 100 µM | SN12C > 100 µM | OVCAR-3 > 100 µM | NCI/ADR-RES > 100 µM | HT-29 > 100 µM
> 100 µM: HCT-15

CCCC[C@@H](C)/C=C1\CN2CCC[C@H]2[C@@](C)(O)[C@@H]1O
inactive: RPMI-8226 > 100 µM | K562 > 100 µM | KM12 > 100 µM | SW-620 > 100 µM | HCC 2998 71.3 µM | NCI-H226 > 100 µM | SF-268 44.7 µM | SK-MEL-28 > 100 µM | M14 53 µM | UO-31 50.7 µM | SF-539 62.2 µM | 786-0 45.2 µM | HOP-62 52.1 µM | ACHN 42 µM | U-251 66.2 µM | Malme-3M > 100 µM | HOP-92 17.2 µM | PC-3 > 100 µM | DU-145 17.3 µM | SNB-75 20.2 µM | SK-MEL-2 > 100 µM | SNB-19 58.9 µM | EKVX > 100 µM | MOLT-4 > 100 µM | MDA-N > 100 µM | UACC-62 38.7 µM | OVCAR-4 21.9 µM | SK-OV-3 73.3 µM | SF-295 55.7 µM | UACC-257 > 100 µM | TK-10 > 100 µM | OVCAR-5 > 100 µM | T47D 30.8 µM | COLO 205 > 100 µM | MDA-MB-231 > 100 µM | A549 43.7 µM | CCRF-CEM 12.3 µM | MDA-MB-435 96.2 µM | HL-60 1.92 µM | CAKI-1 4.2 µM | SK-MEL-5 79.1 µM | IGROV-1 51.6 µM | Hs-578T > 100 µM | NCI-H522 56.1 µM | OVCAR-8 65.5 µM | A498 > 100 µM | MCF7 80.2 µM | NCI-H23 32.9 µM | LOX IMVI 22.8 µM | SR 9.2 µM | NCI-H460 16.7 µM | OVCAR-3 > 100 µM | NCI/ADR-RES 58.9 µM | HT-29 43.2 µM
> 100 µM: HCT-15
active: RXF 393 0.0292 µM

CC1=NN(C2=NS(=O)(=O)c3ccccc3N2C)C(=O)C1
> 100 µM: HCT-15
inactive: K562 > 100 µM | KM12 > 100 µM | SW-620 > 100 µM | HCC 2998 > 100 µM | NCI-H226 > 100 µM | SF-268 > 100 µM | SK-MEL-28 > 100 µM | M14 > 100 µM | UO-31 > 100 µM | SF-539 > 100 µM | 786-0 > 100 µM | HOP-62 > 100 µM | ACHN > 100 µM | U-251 > 100 µM | HOP-92 > 100 µM | PC-3 > 100 µM | DU-145 > 100 µM | SK-MEL-2 > 100 µM | SNB-19 > 100 µM | EKVX > 100 µM | MOLT-4 > 100 µM | UACC-62 > 100 µM | RXF 393 > 100 µM | OVCAR-4 > 100 µM | SK-OV-3 > 100 µM | SF-295 > 100 µM | UACC-257 > 100 µM | TK-10 > 100 µM | BT-549 > 100 µM | OVCAR-5 > 100 µM | T47D > 100 µM | COLO 205 > 100 µM | MDA-MB-231 > 100 µM | A549 > 100 µM | HCT-116 > 100 µM | CCRF-CEM > 100 µM | MDA-MB-435 > 100 µM | HL-60 > 100 µM | CAKI-1 > 100 µM | SK-MEL-5 > 100 µM | IGROV-1 > 100 µM | Hs-578T > 100 µM | NCI-H522 > 100 µM | OVCAR-8 > 100 µM | A498 50.8 µM | MCF7 > 100 µM | NCI-H23 > 100 µM | LOX IMVI > 100 µM | NCI-H460 > 100 µM | SN12C > 100 µM | OVCAR-3 > 100 µM | NCI/ADR-RES > 100 µM | HT-29 > 100 µM
